The values that follow come from article PMC3495945, “Org 214007-0: A Novel Non-Steroidal Selective Glucocorticoid Receptor Modulator with Full Anti-Inflammatory Properties and Improved Therapeutic Index” (PLoS ONE, 2012).

This assay deals with T1, human estrogen receptor alpha (ERα) (Homo sapiens, UniProt P03372).
T1 construct: expressed in transfected cells; host or cells: CHO K1
T1 sequence (P03372 1-595): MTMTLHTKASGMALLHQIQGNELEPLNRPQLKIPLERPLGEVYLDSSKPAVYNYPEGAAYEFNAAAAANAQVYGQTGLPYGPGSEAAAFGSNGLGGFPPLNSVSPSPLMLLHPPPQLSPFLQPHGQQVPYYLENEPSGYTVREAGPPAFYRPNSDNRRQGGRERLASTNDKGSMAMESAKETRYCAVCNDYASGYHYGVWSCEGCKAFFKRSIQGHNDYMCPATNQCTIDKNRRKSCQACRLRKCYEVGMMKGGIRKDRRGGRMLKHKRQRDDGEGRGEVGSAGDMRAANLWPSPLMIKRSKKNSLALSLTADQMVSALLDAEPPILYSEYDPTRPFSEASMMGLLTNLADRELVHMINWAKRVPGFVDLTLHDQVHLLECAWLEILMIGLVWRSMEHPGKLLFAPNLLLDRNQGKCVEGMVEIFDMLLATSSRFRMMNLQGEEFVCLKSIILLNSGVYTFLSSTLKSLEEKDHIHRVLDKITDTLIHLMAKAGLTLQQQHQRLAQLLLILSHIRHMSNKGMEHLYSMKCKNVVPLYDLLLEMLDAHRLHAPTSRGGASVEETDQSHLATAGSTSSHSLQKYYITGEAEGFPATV
In words: CHO steroid receptor reporter assay, ERα / rat oxytocin-Luc. The class given is cell-based. An excerpt: For monitoring both human steroid receptor agonistic as well as antagonistic activity of compounds, Chinese hamster ovary (CHO) K1 cells stably co-transfected with the specific human steroid receptor and its respective reporter construct were used (as previously described).
For human glucocorticoid receptor (GR)-specific activity CHO-GR B4.8 cells containing both recombinant human GR as well as a reporter construct consisting of the mouse mammary tumor virus (MMTV) promotor and the luciferase reporter gene, were used. Compound was incubated alone (in the agonistic setup) or with 50 nM dexamethasone (in the antagonistic setup) overnight. Hereafter, 200 µl medium was removed and 50 µl luciferine substrate solution from the LucLite luminescence kit (Packard, Meriden, USA) was added. […] Percentage maximal antagonistic efficacy was related to the maximal antagonistic efficacy of reference GR antagonist Org 34116. Similar procedures were followed for the other human steroid receptor assays (for more detailed information see Supportive Information) (SI text).
Similar procedures were followed for the other human steroid receptor assays containing combinations of human progesterone receptor B (PR-B) and MMTV-Luc, human androgen receptor (AR) and MMTV-Luc, human chimeric glucocorticoid-mineralocorticoid receptor (GGM, Trapp et al. (1994), Neuron 13: 1457) and MMTV-Luc, human estrogen receptor alpha (ERα) and rat oxytocin-Luc (45), and human estrogen receptor beta (ERβ) and rat oxytocin-Luc, respectively.
A general note: In a reporter assay the amount or activity of a reporter protein is the signal.

In general, EC50 refers to the concentration giving half of the maximal effect. What is called IC50 is the concentration at which inhibition is half-maximal. Regarding `Cc1nnsc1C(=O)N[C@H]1CCN2c3ccc(C#N)cc3[C@@H](C)c3ccccc3[C@@H]2C1` [Org 214007-0], under “read-out: EC50 (agonist)”, the EC50 is more than 100 nM. Further, for the setting “read-out: IC50 (antagonist)”, the IC50 was more than 1000 nM. For the same compound, for the setting “relative to reference compound”, the “% agonist potency” value was less than 0.01% and the “% antagonist potency” value is less than 1.86%.
